Holding throughout (format): in vivo
The subject of assay [1] is Johnsongrass (Sorghum halepense). As to the kind of experiment: Postemergence herbicidal activity, johnsongrass. To be noted: rate of application 0.3 Kg/Ha, rated after 12-17 days.
Assay [2] deals with velvetleaf (Abutilon theophrasti). As to the kind of experiment: Postemergence herbicidal activity, velvetleaf. The settings on record: rate of application 0.3 Kg/Ha, rated after 12-17 days.
Assay [3] has as its system soybean (Glycine max var. Winchester). As to the kind of experiment: Postemergence herbicidal activity, soybean. To be noted: rate of application 0.3 Kg/Ha, rated after 12-17 days.
Assay [4] has as its system velvetleaf (Abutilon theophrasti). As to the kind of experiment: Preemergence herbicidal activity, velvetleaf. To be noted: Rate of Application 0.3 Kg/Ha, examined after 12-17 days.
Assay [5] concerns common chickweed (Stellaria media). As to the kind of experiment: Preemergence herbicidal activity, chickweed. To be noted: Rate of Application 0.3 Kg/Ha, examined after 12-17 days.
For assay [6], the system named is common cocklebur (Xanthium strumarium L.). As to the kind of experiment: Preemergence herbicidal activity, cocklebur. To be noted: Rate of Application 0.3 Kg/Ha, examined after 12-17 days.
For assay [7], the system named is blackgrass (Aloepecurus myosuroides). As to the kind of experiment: Postemergence herbicidal activity, blackgrass. The settings on record: rate of application 0.3 Kg/Ha, rated after 12-17 days. The protocol: The benzofused heterocyclic compounds of this invention were tested for pre- and postemergence herbicidal activity using a variety of crops and weeds. The test plants included soybean (Glycine max var. Winchester), field corn (Zea mays var. Pioneer 3732), wheat (Triticum aestivum var. Lew), morningglory (Ipomea lacunosa or Ipomea hederacea), velvetleaf (Abutilon theophrasti), green foxtail (Setaria viridis), Johnsongrass (Sorghum halepense), blackgrass (Aloepecurus myosuroides), common chickweed (Stellaria media), and common cocklebur (Xanthium strumarium L.).
For preemergence testing, two disposable fiber flats (8 cm×15 cm×25 cm) for each rate of application of each candidate herbicide were filled to an approximate depth of 6.5 cm with steam-sterilized sandy loam soil. The soil was leveled and impressed with a template to provide five evenly spaced furrows 13 cm long and 0.5 cm deep in each flat. Seeds of soybean, wheat, corn, green foxtail, and johnsongrass were planted in the furrows of the first flat, and seeds of velvetleaf, morningglory, common chickweed, cocklebur, and blackgrass were planted in the furrows of the second flat. The five-row template was employed to firmly press the seeds into place. A topping soil of equal portions of sand and sandy loam soil was placed uniformly on top of each flat to a depth of approximately 0.5 cm. Flats for postemergence testing were prepared in the same manner except that they were planted 9-14 days prior to the preemergence flats and were placed in a greenhouse and watered, thus allowing the seeds to germinate and the foliage to develop.
In both pre- and postemergence tests, a stock solution of the candidate herbicide was prepared by dissolving 0.27 g of the compound in 20 mL of water/acetone (50/50) containing 0.5% v/v sorbitan monolaurate. For an application rate of 3000 g/ha of herbicide a 10 mL portion of the stock solution was diluted with water/acetone (50/50) to 45 mL.
The preemergence flats were initially subjected to a light water spray. The four flats were placed two by two along a conveyor belt (i.e., the two preemergence followed by the two postemergence flats). The conveyor belt fed under a spray nozzle mounted about ten inches above the post-emergent foliage. The preemergent flats were elevated on the belt so that the soil surface was at the same level below the spray nozzle as the foliage canopy of the postemergent plants. The spray of herbicidal solution was commenced and once stabilized, the flats were passed under the spray at a speed to receive a coverage equivalent of 100 L/ha. At this coverage the application rates are those shown in the above table for the individual herbicidal solutions. The preemergence flats were watered immediately thereafter, placed in the greenhouse and watered regularly at the soil surface. The postemergence flats were immediately placed in the green-house and not watered until 24 hours after treatment with the test solution. Thereafter they were regularly watered at ground level. After 12-17 days the plants were examined and the phytotoxicity data were recorded.
Phytotoxicity data were taken as percent control. Percent control was determined by a method similar to the 0 to 100 rating system disclosed in “Research Methods in Weed Science,” 2nd ed., B. Truelove, Ed.; Southern Weed Science Society; Auburn University, Auburn, Ala., 1977.

Assay [8] deals with wheat (Triticum aestivum var. Lew). As to the kind of experiment: Preemergence herbicidal activity, wheat. To be noted: Rate of Application 0.3 Kg/Ha, examined after 12-17 days.
The subject of assay [9] is morningglory (Ipomea lacunosa or Ipomea hederacea). As to the kind of experiment: Postemergence herbicidal activity, morningglory. To be noted: rate of application 0.3 Kg/Ha, rated after 12-17 days.
Assay [10] has as its system soybean (Glycine max var. Winchester). As to the kind of experiment: Preemergence herbicidal activity, soybean. The settings on record: Rate of Application 0.3 Kg/Ha, examined after 12-17 days.
Assay [11] concerns green foxtail (Setaria viridis). As to the kind of experiment: Postemergence herbicidal activity, green foxtail. To be noted: rate of application 0.3 Kg/Ha, rated after 12-17 days.
For assay [12], the system named is common cocklebur (Xanthium strumarium L.). As to the kind of experiment: Postemergence herbicidal activity, cocklebur. The settings on record: rate of application 0.3 Kg/Ha, rated after 12-17 days.
The test system of assay [13] is field corn (Zea mays var. Pioneer 3732). As to the kind of experiment: Postemergence herbicidal activity, corn. To be noted: rate of application 0.3 Kg/Ha, rated after 12-17 days.
Assay [14] concerns wheat (Triticum aestivum var. Lew). As to the kind of experiment: Postemergence herbicidal activity, wheat. To be noted: rate of application 0.3 Kg/Ha, rated after 12-17 days.
In assay [15] the test system is blackgrass (Aloepecurus myosuroides). As to the kind of experiment: Preemergence herbicidal activity, blackgrass. The settings on record: Rate of Application 0.3 Kg/Ha, examined after 12-17 days.
The subject of assay [16] is field corn (Zea mays var. Pioneer 3732). As to the kind of experiment: Preemergence herbicidal activity, corn. To be noted: Rate of Application 0.3 Kg/Ha, examined after 12-17 days.
Assay [17] has as its system morningglory (Ipomea lacunosa or Ipomea hederacea). As to the kind of experiment: Preemergence herbicidal activity, morningglory. To be noted: Rate of Application 0.3 Kg/Ha, examined after 12-17 days.
Assay [18] relates to Johnsongrass (Sorghum halepense). As to the kind of experiment: Preemergence herbicidal activity, johnsongrass. The settings on record: Rate of Application 0.3 Kg/Ha, examined after 12-17 days.
The test system of assay [19] is green foxtail (Setaria viridis). As to the kind of experiment: Preemergence herbicidal activity, green foxtail. To be noted: Rate of Application 0.3 Kg/Ha, examined after 12-17 days.

The values that follow come from patent publication US6352958B1, “Cycloimido-substituted benzofused heterocyclic herbicides” (FMC Corporation, priority 1997, dated 2002).

Structures are written as SMILES.

As to `Cn1c(C(F)(F)F)cc(=O)n(-c2c(F)cc(Cl)c3oc(NS(C)(=O)=O)nc23)c1=O` [Compound 42], the “Postemergence herbicidal activity (% control) SORHA” value in assay [1] was determined as 20%. Moreover, in [2], the “Postemergence herbicidal activity (% control) ABUTH” value is given as 90%. Further, the “Postemergence herbicidal activity (% control) SOY” value in assay [3] is 65%. In addition, in assay [4], the “PREEMERGENCE HERBICIDAL ACTIVITY (% CONTROL) ABUTH” value was 100%. The “PREEMERGENCE HERBICIDAL ACTIVITY (% CONTROL) STEME” value in assay [5] came out at 30%. Further, the “PREEMERGENCE HERBICIDAL ACTIVITY (% CONTROL) XANPE” value in assay [6] turned out to be 20%. Besides, the “Postemergence herbicidal activity (% control) ALOMY” value in assay [7] stood at 40%. In assay [8], the “PREEMERGENCE HERBICIDAL ACTIVITY (% CONTROL) WHT” value amounted to 10%. Moreover, in assay [9], the “Postemergence herbicidal activity (% control) IPOSS” value was determined as 60%. Further, the “PREEMERGENCE HERBICIDAL ACTIVITY (% CONTROL) SOY” value in assay [10] is given as 0%. Further, the “Postemergence herbicidal activity (% control) SETVI” value in [11] is reported as 100%. The “Postemergence herbicidal activity (% control) XANPE” value in assay [12] worked out at 50%. Also, the “Postemergence herbicidal activity (% control) CRN” value in [13] worked out at 60%. Besides, the “Postemergence herbicidal activity (% control) WHT” value in assay [14] worked out at 30%. Further, the “PREEMERGENCE HERBICIDAL ACTIVITY (% CONTROL) ALOMY” value in [15] turned out to be 50%. In addition, the “PREEMERGENCE HERBICIDAL ACTIVITY (% CONTROL) CRN” value in assay [16] was 0%. Moreover, the “PREEMERGENCE HERBICIDAL ACTIVITY (% CONTROL) IPOSS” value in assay [17] is on record as 60%. For the same compound, the “PREEMERGENCE HERBICIDAL ACTIVITY (% CONTROL) SORHA” value in assay [18] was determined as 0%. For the same compound, in assay [19], the “PREEMERGENCE HERBICIDAL ACTIVITY (% CONTROL) SETVI” value was determined as 30%.
Take `COc1nc2c(-n3c(=O)cc(C(F)(F)F)n(C)c3=O)c(F)cc(Br)c2o1` [Compound 109, 1-METHYL-6-TRIFLUOROMETHYL-3-(7-BROMO-5-FLUORO-2-METHOXYBENZOXAZOL-4-YL)-2,4(1H,3H)-PYRIMIDINEDIONE]: the inhibition at 300 g/ha in assay [1] (Sorghum halepense, post-emergence, read-out: Postemergence herbicidal activity (% control) SORHA) turned out to be 90%; in assay [2] (Abutilon theophrasti, post-emergence, read-out: Postemergence herbicidal activity (% control) ABUTH) it was 100%; in assay [3] (Glycine max, post-emergence, read-out: Postemergence herbicidal activity (% control) SOY) it was 90%; in assay [4] (Abutilon theophrasti, pre-emergence, read-out: PREEMERGENCE HERBICIDAL ACTIVITY (% CONTROL) ABUTH) it was 100%; in assay [5] (Stellaria media, pre-emergence, read-out: PREEMERGENCE HERBICIDAL ACTIVITY (% CONTROL) STEME), 100%; in [6] (Xanthium strumarium, pre-emergence, read-out: PREEMERGENCE HERBICIDAL ACTIVITY (% CONTROL) XANPE) it was 100%. Further, the inhibition at 300 g/ha in [7] (Alopecurus myosuroides, post-emergence, read-out: Postemergence herbicidal activity (% control) ALOMY) was found to be 90%; in assay [8] (Triticum aestivum, pre-emergence, read-out: PREEMERGENCE HERBICIDAL ACTIVITY (% CONTROL) WHT), 100%; in assay [9] (Ipomoea, post-emergence, read-out: Postemergence herbicidal activity (% control) IPOSS), 100%; in assay [10] (Glycine max, pre-emergence, read-out: PREEMERGENCE HERBICIDAL ACTIVITY (% CONTROL) SOY) it was 100%; in [11] (Setaria viridis, post-emergence, read-out: Postemergence herbicidal activity (% control) SETVI), 100%; in assay [12] (Xanthium strumarium, post-emergence, read-out: Postemergence herbicidal activity (% control) XANPE), 100%. For the same compound, the inhibition at 300 g/ha in [13] (Zea mays, post-emergence, read-out: Postemergence herbicidal activity (% control) CRN) is 80%; in assay [14] (Triticum aestivum, post-emergence, read-out: Postemergence herbicidal activity (% control) WHT), 90%; in [15] (Alopecurus myosuroides, pre-emergence, read-out: PREEMERGENCE HERBICIDAL ACTIVITY (% CONTROL) ALOMY) it was 100%; in assay [16] (Zea mays, pre-emergence, read-out: PREEMERGENCE HERBICIDAL ACTIVITY (% CONTROL) CRN), 90%; in [17] (Ipomoea, pre-emergence, read-out: PREEMERGENCE HERBICIDAL ACTIVITY (% CONTROL) IPOSS), 100%; in [18] (Sorghum halepense, pre-emergence, read-out: PREEMERGENCE HERBICIDAL ACTIVITY (% CONTROL) SORHA), 100%. The inhibition at 300 g/ha in [19] (Setaria viridis, pre-emergence, read-out: PREEMERGENCE HERBICIDAL ACTIVITY (% CONTROL) SETVI) was determined as 100%.
`Cn1c(C(F)(F)F)cc(=O)n(-c2c(F)cc(Cl)c3nc(Cc4ccc(Cl)cc4)[nH]c23)c1=O` [Compound 383]: the “Postemergence herbicidal activity (% control) SORHA” value in assay [1] is listed as 70%. For the same compound, the “Postemergence herbicidal activity (% control) ABUTH” value in [2] is 100%. The “Postemergence herbicidal activity (% control) SOY” value in assay [3] is on record as 95%. The “PREEMERGENCE HERBICIDAL ACTIVITY (% CONTROL) ABUTH” value in assay [4] is recorded as 100%. Besides, the “PREEMERGENCE HERBICIDAL ACTIVITY (% CONTROL) XANPE” value in assay [6] amounted to 70%. Further, the “Postemergence herbicidal activity (% control) ALOMY” value in assay [7] is given as 60%. Moreover, the “PREEMERGENCE HERBICIDAL ACTIVITY (% CONTROL) WHT” value in [8] stood at 40%. Further, in assay [9], the “Postemergence herbicidal activity (% control) IPOSS” value stood at 95%. The “PREEMERGENCE HERBICIDAL ACTIVITY (% CONTROL) SOY” value in assay [10] is listed as 80%. In addition, the “Postemergence herbicidal activity (% control) SETVI” value in [11] was determined as 95%. In assay [12], the “Postemergence herbicidal activity (% control) XANPE” value was 100%. Also, the “Postemergence herbicidal activity (% control) CRN” value in [13] was 95%. In addition, the “Postemergence herbicidal activity (% control) WHT” value in assay [14] worked out at 40%. Besides, in [15], the “PREEMERGENCE HERBICIDAL ACTIVITY (% CONTROL) ALOMY” value worked out at 80%. Further, the “PREEMERGENCE HERBICIDAL ACTIVITY (% CONTROL) CRN” value in [16] came to 20%. Moreover, the “PREEMERGENCE HERBICIDAL ACTIVITY (% CONTROL) IPOSS” value in assay [17] worked out at 60%. Further, in assay [18], the “PREEMERGENCE HERBICIDAL ACTIVITY (% CONTROL) SORHA” value worked out at 55%. Further, the “PREEMERGENCE HERBICIDAL ACTIVITY (% CONTROL) SETVI” value in assay [19] stood at 75%.
